From ChEMBL document CHEMBL1201862, “PubChem BioAssay data set” (2004)
Calls of active or inactive are those of the source.

What was measured:
Streptococcus = assay: Group A Streptococcus viability loss, dose response, counter-screen for streptokinase expression inhibitor project, luminescence, BacTiterGlo (AID 1915); format: functional, organism-based;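 note: potency for reduction of bacterial viability or growth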
Streptokinase A = molecular target: T1, Streptokinase A (Streptococcus pyogenes serotype M1, UniProt P10520); assay: S. pyogenes streptokinase expression inhibitors, potency, dose response, plasminogen activation absorbance, OD405 (AID 1914); format: functional, Streptococcus pyogenes M1 GAS;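 note: secreted streptokinase activity via plasminogen activation per viability signal from cell pellet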
T1 sequence (P10520 whole entry): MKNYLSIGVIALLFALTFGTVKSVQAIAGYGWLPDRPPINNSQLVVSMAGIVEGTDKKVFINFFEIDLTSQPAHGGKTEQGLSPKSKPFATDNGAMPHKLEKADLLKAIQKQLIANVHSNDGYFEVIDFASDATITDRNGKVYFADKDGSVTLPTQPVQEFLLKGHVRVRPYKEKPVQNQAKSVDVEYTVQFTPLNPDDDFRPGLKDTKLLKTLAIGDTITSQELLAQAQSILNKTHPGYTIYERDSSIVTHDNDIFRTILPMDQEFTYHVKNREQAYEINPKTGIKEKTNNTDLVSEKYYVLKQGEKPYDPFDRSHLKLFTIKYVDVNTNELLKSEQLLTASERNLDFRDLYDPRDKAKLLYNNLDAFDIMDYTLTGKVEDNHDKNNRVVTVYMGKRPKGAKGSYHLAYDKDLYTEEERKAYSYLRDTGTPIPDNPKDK

Nonstructural protein 1 = Nonstructural protein 1 (Influenza A virus, UniProt Q194T2); format: functional, Influenza A virus (A/California/07/2009(H1N1))
Sequence of Nonstructural protein 1 (Q194T2 whole entry): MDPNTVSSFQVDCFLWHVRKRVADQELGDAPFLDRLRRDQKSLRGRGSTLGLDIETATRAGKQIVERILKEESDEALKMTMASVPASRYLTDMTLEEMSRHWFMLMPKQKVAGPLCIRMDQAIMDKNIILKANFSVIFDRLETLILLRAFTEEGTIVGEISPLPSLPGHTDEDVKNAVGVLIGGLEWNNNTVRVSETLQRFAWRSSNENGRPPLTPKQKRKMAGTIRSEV

[1] = molecular target: Latent membrane protein 1 (Human herpesvirus 4 (strain B95-8), UniProt P03230); assay: TES1-eGFP NF-kB reporter inhibition versus Tet-On dsRED, dose response, selectivity assay for LMP1 NF-kB inhibitor project, imaging, HEK293T, dual-color eGFP/dsRED, cherry-picks (AID 588398); format: functional, cell-based
Sequence of Latent membrane protein 1 (P03230 whole entry): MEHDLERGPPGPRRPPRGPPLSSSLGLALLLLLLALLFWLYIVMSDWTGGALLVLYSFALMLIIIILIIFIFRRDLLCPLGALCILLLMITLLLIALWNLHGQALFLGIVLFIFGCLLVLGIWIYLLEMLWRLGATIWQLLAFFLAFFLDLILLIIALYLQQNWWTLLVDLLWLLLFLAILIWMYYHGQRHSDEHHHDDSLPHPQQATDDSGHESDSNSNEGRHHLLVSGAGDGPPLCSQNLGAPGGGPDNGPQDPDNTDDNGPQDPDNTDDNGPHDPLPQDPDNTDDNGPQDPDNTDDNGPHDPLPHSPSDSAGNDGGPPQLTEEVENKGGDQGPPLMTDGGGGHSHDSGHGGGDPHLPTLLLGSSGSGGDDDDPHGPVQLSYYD

[2] = test system: Streptococcus sp. 'group A'; assay: growth inhibition of control SK(-) GAS strain, dose response, counter-screen for streptokinase expression inhibitor project, luminescence, kanamycin, BacTiterGlo, confirmation (AID 1900); format: functional, organism-based
[3] = molecular target: Polyadenylate-binding protein 1 (Homo sapiens, UniProt P11940); assay: PABP poly(A) RNA binding inhibitors, primary screen, biochemical, fluorescence polarization, uHTS (AID 2014)
Sequence of Polyadenylate-binding protein 1 (P11940 whole entry): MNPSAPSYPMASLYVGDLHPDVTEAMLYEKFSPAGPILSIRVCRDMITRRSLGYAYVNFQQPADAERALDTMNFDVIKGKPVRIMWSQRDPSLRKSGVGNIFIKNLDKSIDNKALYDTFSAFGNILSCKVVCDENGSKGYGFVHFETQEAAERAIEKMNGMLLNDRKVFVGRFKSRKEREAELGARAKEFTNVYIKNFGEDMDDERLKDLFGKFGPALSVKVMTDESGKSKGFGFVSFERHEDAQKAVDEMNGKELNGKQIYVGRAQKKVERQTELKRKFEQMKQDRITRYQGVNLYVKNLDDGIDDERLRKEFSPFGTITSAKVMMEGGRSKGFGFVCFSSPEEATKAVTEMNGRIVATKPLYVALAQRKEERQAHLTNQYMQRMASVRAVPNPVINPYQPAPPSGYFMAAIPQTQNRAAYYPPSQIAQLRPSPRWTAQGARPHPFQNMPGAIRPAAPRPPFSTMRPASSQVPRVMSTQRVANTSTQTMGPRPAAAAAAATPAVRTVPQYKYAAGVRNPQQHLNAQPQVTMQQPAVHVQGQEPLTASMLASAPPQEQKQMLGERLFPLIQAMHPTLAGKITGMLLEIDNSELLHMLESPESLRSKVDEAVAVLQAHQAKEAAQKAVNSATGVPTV

[4] = molecular target: T2, Intestinal-type alkaline phosphatase (Homo sapiens, UniProt P09923); assay: human IAP activators, dose response, biochemical, luminescent, uHTS hits, set 2 (AID 488817); format: functional;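 note: potency of activators that raise enzyme activity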
T2 sequence (P09923 whole entry): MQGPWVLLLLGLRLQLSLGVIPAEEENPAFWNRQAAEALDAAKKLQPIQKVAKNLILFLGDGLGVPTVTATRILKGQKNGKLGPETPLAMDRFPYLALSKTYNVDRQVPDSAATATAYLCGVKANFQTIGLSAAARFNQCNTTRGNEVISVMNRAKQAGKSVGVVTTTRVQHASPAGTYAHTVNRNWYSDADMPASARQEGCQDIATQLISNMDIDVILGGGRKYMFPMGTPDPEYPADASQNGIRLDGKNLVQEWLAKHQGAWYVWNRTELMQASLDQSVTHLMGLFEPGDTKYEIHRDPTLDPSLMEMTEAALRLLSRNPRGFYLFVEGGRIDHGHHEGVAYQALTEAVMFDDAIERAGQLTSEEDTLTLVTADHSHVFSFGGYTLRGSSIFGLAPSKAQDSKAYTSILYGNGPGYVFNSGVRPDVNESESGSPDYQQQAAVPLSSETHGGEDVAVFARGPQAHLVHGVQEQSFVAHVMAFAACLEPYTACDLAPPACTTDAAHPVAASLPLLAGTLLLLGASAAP

[5] = molecular target: T3, Alkaline phosphatase, tissue-nonspecific isozyme (Homo sapiens, UniProt P05186); assay: TNAP enzyme inhibition by screening hits, dose response, selectivity assay for mouse IAP inhibitor project, biochemical, human TNAP, uHTS hits (AID 488906); format: functional
T3 sequence (P05186 whole entry): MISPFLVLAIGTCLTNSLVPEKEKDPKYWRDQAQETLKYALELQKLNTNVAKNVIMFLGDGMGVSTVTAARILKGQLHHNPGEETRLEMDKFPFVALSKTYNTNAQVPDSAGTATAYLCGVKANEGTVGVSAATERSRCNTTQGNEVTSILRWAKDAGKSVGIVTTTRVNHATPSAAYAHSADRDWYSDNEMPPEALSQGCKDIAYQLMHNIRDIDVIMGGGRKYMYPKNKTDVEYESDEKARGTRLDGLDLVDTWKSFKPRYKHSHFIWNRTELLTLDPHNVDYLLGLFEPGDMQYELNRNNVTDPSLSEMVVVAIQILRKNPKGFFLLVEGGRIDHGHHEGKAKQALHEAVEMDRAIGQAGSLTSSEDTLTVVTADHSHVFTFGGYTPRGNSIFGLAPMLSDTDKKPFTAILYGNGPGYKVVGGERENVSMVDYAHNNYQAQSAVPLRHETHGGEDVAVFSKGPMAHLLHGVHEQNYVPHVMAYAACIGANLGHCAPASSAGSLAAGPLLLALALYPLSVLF

[6] = molecular target: Eukaryotic translation initiation factor 4H (Homo sapiens, UniProt Q15056); assay: human eIF4H binding inhibitors, primary screen, translation initiation inhibitor project, biochemical, uHTS, fluorescence polarization (AID 2012)
[7] = molecular target: T4, Intestinal-type alkaline phosphatase (Mus musculus, UniProt P24822); assay: PubChem AID 488874; format: functional
T4 sequence (P24822 whole entry): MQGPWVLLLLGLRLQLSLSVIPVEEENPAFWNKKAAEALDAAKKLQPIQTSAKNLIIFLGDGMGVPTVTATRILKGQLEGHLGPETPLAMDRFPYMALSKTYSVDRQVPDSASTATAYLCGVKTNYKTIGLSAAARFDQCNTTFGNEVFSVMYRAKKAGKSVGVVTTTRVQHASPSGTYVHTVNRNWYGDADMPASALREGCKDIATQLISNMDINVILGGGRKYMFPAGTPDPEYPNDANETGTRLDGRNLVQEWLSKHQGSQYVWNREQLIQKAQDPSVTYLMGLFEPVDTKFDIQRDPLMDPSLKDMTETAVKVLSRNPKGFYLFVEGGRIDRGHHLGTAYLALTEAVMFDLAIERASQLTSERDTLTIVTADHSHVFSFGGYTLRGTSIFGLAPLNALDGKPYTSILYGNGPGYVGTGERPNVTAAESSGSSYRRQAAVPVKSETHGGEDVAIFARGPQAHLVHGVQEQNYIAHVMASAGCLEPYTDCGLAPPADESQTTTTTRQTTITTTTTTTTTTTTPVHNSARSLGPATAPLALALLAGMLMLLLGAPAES

[8] = molecular target: T3, Alkaline phosphatase, tissue-nonspecific isozyme; assay: TNAP enzyme activators, dose response, selectivity assay for human IAP activator project, biochemical, TNAP isozyme, human IAP uHTS hits (AID 488886); format: functional;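 note: potency of compounds raising TNAP activity as a selectivity check on IAP activators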
[9] = molecular target: T2, Intestinal-type alkaline phosphatase; assay: human intestinal alkaline phosphatase activators, dose response, biochemical, luminescence, uHTS hits (AID 463120); format: functional
[10] = molecular target: T2, Intestinal-type alkaline phosphatase; assay: inhibition of human intestinal alkaline phosphatase – biochemical, dose response (AID 488876); format: functional
[11] = molecular target: T4, Intestinal-type alkaline phosphatase; assay: PubChem AID 488785; format: functional

Row | Structure (SMILES) | EC50 (Streptococcus) | EC50 (Streptokinase A) | IC50 (Nonstructural protein 1) | AC50 [1] | EC50 [2] | IC50 [3] | EC50 [4] | IC50 [5] | IC50 [6] | IC50 [7] | EC50 [8] | EC50 [9] | IC50 [10] | IC50 [11]
1 | Cc1onc(-c2ccccc2)c1C(=O)NC(=S)NNC(=O)c1ccc(O)cc1O | 25.3 µM (active) | > 150 µM (not active) | 11.4 µM (active) | 1.15 µM (active) | 6.86 µM (active) | – | – | – | – | – | – | – | – | –
2 | O=C(N/N=C/c1ccc(O)cc1O)C(=O)N/N=C/c1ccc(O)cc1O | – | – | – | – | – | > 100 µM (inactive) | 4.56 µM (active) | 38.1 µM (active) | 2.31 µM (active) | 5.04 µM (active) | > 100 µM (inactive) | 7.62 µM (active) | 51.3 µM (active) | 604 nM (active)
